The values that follow are results of earlier work, collected in patent US20200317616A1, “Crystalline Form of Betrixaban Maleate” (Apotex Inc., priority 2019, published 2020).

The conditions of data set [1]: anhydrous form, CDER review NDA 208383.
For data set [2] the following is noted: anhydrous form, CDER review NDA 208383. This is another data set of the same source.
For data set [3] the following is noted: labelling of BEVYXXA.

Structures can show the parent of a compound that is named as a salt.

`COc1ccc(NC(=O)c2ccc(C(=N)N(C)C)cc2)c(C(=O)Nc2ccc(Cl)cn2)c1` [Betrixaban maleate]: the permeability entry in data set [1] is on record as “low”. Further, the solubility entry in data set [2] is “high”.

In the case of `COc1ccc(NC(=O)c2ccc(C(=N)N(C)C)cc2)c(C(=O)Nc2ccc(Cl)cn2)c1` [Betrixaban, N-(5-chloropyridin-2-yl)-2-[4-(N,N-dimethylcarbamimidoyl)-benzoylamino]-5-methoxybenzamide], the oral bioavailability in data set [3] is reported as 34%.
